Test results: patent US10080807B2 (LIPOMEDIX PHARMACEUTICALS LTD., priority 2014, dated 2018)

How the values were obtained:
[1] = system: C26 (colon carcinoma) mouse tumor model; assay: Anti-tumor effect in colon carcinoma tumor model (Example 6); assay type: in vivo; conditions: C26 ip in BALB/c mice; gemcitabine 100 mg/kg ip or paclitaxel 15 mg/kg ip days 5, 8, 12, 15, alone or with prodrug 30 mg/kg iv; 45 days
Excerpt: C26 (colon carcinoma) mouse tumor model was used by injecting BALB/c F intraperitoneally with 1 million tumor cells.

[2] = system: subcutaneous 4T1 breast mouse tumor model; conditions: day 5 iv; mitomycin C 6 mg/kg; prodrug 40 mg/kg; combination prodrug 30 mg/kg + liposome-entrapped doxorubicin 8 mg/kg; median tumor size
Excerpt: A subcutaneous 4T1 breast mouse tumor model was selected, and established by inoculating tumor cells subcutaneously into BALB/c f mice. The day of sc injection with tumor cells was defined as study day zero.

[3] = system: N87 human gastric tumor model; conditions: N87 in footpad of nude mice; mitomycin C 5 mg/kg iv or prodrug 35 mg/kg iv days 6, 13; paclitaxel 15 mg/kg ip days 6, 10, 13, 17; mice with unacceptable toxicity removed
Procedure: An N87 human gastric tumor model was selected, and established by inoculating N87 tumor cells into the footpad of nude mice via subcutaneous (sc) injection. The day of sc injection with tumor cells was defined as study day zero.
The tumor size of the animals in each treatment group was measured.

[4] = system: N87 human gastric tumor model; assay: Anti-tumor effect in gastric tumor model (Example 7); assay type: in vivo
Excerpt: An N87 human gastric tumor model was selected, and established by inoculating 10^6 N87 tumor cells into the footpad of nude mice via subcutaneous (sc) injection. The day of sc injection with tumor cells was defined as study day zero.

[5] = system: human A375 melanoma subcutaneous tumor model; conditions: prodrug 25 mg/kg iv days 11, 18; paclitaxel 15 mg/kg ip days 11, 14, 18, 21; alone or combined
Procedure: A human A375 melanoma subcutaneous tumor model was selected, and established by inoculating tumor cells into nude mice via subcutaneous (sc) injection. The day of sc injection with tumor cells was defined as study day zero.
The tumor size of the animals (n=6) in each treatment group was measured, and the median tumor size (in mm) is shown in FIG. 6 as a function of days post tumor inoculation.

| Structure (SMILES) | survival (in words) [1] | tumor growth (in words) [2] | tumor size (in words) [3] | animals tumor free at observation day 50 ([4]; N87 in footpad of nude mice, prodrug 25 mg/kg iv days 5, 12, paclitaxel 15 mg/kg ip days 5, 8, 12, 15) | reduction in tumor volume ([4]; individual tumor volumes measured to 48 days post inoculation (FIGS. 5C-5H)) | tumor growth (in words) [5] |
| --- | --- | --- | --- | --- | --- | --- |
| Nc1ccn([C@@H]2O[C@H](CO)[C@@H](O)C2(F)F)c(=O)n1 [gemcitabine, 2′-deoxy-2′,2′-difluoro-cytidine] | fared poorly, with nearly all animals failing to survive the study period | – | – | – | – | – |
| CO[C@@]12[C@H](COC(N)=O)C3=C(C(=O)C(C)=C(N)C3=O)N1C[C@@H]1N[C@@H]12 [mitomycin C] | – | continued growth in tumor size | continuous increase in tumor size | – | – | – |
| CC(=O)O[C@H]1C(=O)[C@@]2(C)[C@H]([C@H](OC(=O)c3ccccc3)[C@]3(O)C[C@H](OC(=O)[C@H](O)[C@@H](NC(=O)c4ccccc4)c4ccccc4)C(C)=C1C3(C)C)[C@]1(OC(C)=O)CO[C@@H]1C[C@@H]2O [paclitaxel] | fared poorly, with nearly all animals failing to survive the study period | – | continuous increase in tumor size | two of eight animals | Reduction in tumor volume was not observed | either a shorter plateau period of attenuated tumor growth or an increase in tumor growth sooner than animals treated with the combination therapy |
